Data: ChEMBL document CHEMBL1201862, “PubChem BioAssay data set” (2004)
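Following 48 hours of exposure in 96-well plates, responses at five concentrations were used to interpolate endpoints linearly. The concentration for 50% growth inhibition is given as GI50.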 The source made the active and inactive calls. No stated cut-off is given here; in the data, active = GI50 up to about 1.1 µM and inactive = higher.

Columns and labels:
Assay in all cases: DTP human tumour cell line panel, 48 h
[1] = system: HCC 2998
[2] = system: MOLT-4
[3] = system: RPMI-8226
[4] = system: SF-539
[5] = system: LOX IMVI
[6] = system: HOP-62
[7] = system: RXF 393
[8] = system: SK-MEL-28
[9] = system: COLO 205
[10] = system: SK-OV-3
[11] = system: SF-268
[12] = system: A549
[13] = system: NCI-H226
[14] = system: OVCAR-4
[15] = system: NCI-H522
[16] = system: KM12
[17] = system: OVCAR-5
[18] = system: TK-10
[19] = system: UO-31
[20] = system: K562

Measured: GI50

CC1CC(c2ccc([N+](=O)[O-])cc2)=Nc2ccccc2[S+]1[O-] (configuration not stated)
inactive: [1] 21.8 µM | [2] 24.8 µM | [3] 4.58 µM | [4] 21.8 µM | [5] 12.1 µM | [6] 26.1 µM | [7] 11.1 µM | [8] 20 µM | [9] 18 µM | [10] 23 µM | [11] 20.1 µM | [12] 20 µM | [13] 29.2 µM | [14] 21.6 µM | [15] 12.2 µM | [16] 13 µM | [17] 26.5 µM | [18] 27 µM | [19] 13 µM | [20] 17.5 µM

CCCCCCNC(=O)C(C)C1CCC2(C)C=CC(=O)C(C)=C2C1O (configuration not stated)
inactive: [1] > 100 µM | [2] > 75.2 µM | [3] > 70.3 µM | [4] > 100 µM | [5] > 100 µM | [6] > 100 µM | [7] > 100 µM | [8] > 100 µM | [9] > 100 µM | [10] > 100 µM | [11] > 100 µM | [12] > 100 µM | [13] > 100 µM | [14] 96.8 µM | [15] 86.3 µM | [16] > 88.1 µM | [17] 99.1 µM | [19] > 89.9 µM | [20] 68.5 µM

COc1cc(OC)cc(N2CCC(c3c(N)nc(N)nc3Cl)CC2)c1
inactive: [1] 67.5 µM | [2] 31.5 µM | [3] 16.9 µM | [5] > 100 µM | [6] 62.2 µM | [7] > 100 µM | [8] 52.8 µM | [9] 58.1 µM | [10] > 100 µM | [11] 98.2 µM | [12] 65 µM | [14] 91.8 µM | [15] 41.3 µM | [16] 66.4 µM | [17] > 100 µM | [18] > 100 µM | [19] 62.8 µM | [20] 31.6 µM

CC1(C)C(=O)OC(n2cc(F)c(=O)[nH]c2=O)C1=O (configuration not stated)
inactive: [1] 46.6 µM | [2] > 100 µM | [3] > 100 µM | [4] 43.9 µM | [5] > 100 µM | [6] 65.9 µM | [7] > 100 µM | [8] > 100 µM | [9] > 100 µM | [10] > 100 µM | [11] > 100 µM | [12] 66.5 µM | [13] > 100 µM | [14] > 100 µM | [15] > 100 µM | [16] > 100 µM | [17] > 100 µM | [18] > 100 µM | [19] > 100 µM | [20] > 100 µM

Cc1coc2c1C[C@@]1(C)[C@H](CCC[C@@H]1C)[C@H]2O
inactive: [1] 11.4 µM | [2] 18 µM | [3] 18.1 µM | [4] 25.1 µM | [5] 56.4 µM | [6] 29.4 µM | [7] 20.8 µM | [8] 29.5 µM | [9] 41.6 µM | [10] > 100 µM | [11] 16.9 µM | [13] 15.5 µM | [14] 28.1 µM | [15] 22.4 µM | [16] > 100 µM | [17] 37.2 µM | [18] 54 µM | [20] 28.4 µM

Cc1cc2c(=O)c3ccccc3[nH]c2c(C(N)=O)c1C
inactive: [2] > 100 µM | [3] > 100 µM | [4] > 100 µM | [5] > 100 µM | [7] > 100 µM | [8] > 100 µM | [9] > 100 µM | [10] > 100 µM | [11] > 100 µM | [12] > 100 µM | [13] > 100 µM | [14] > 100 µM | [15] > 100 µM | [16] > 100 µM | [17] > 100 µM | [18] > 100 µM | [19] > 100 µM | [20] > 100 µM

Cc1ccc2c(O)cc(-c3ccc(F)cc3)nc2n1
inactive: [1] 44 µM | [2] 26.8 µM | [3] 24.9 µM | [4] 42.5 µM | [5] 30.1 µM | [6] 48.8 µM | [8] 49 µM | [9] 17.2 µM | [10] 40.2 µM | [11] 52.7 µM | [12] 61.7 µM | [13] 37.1 µM | [14] 44.5 µM | [15] 24.9 µM | [16] 22.4 µM | [17] 70.1 µM | [18] 46.6 µM | [19] 59.2 µM | [20] 22 µM
